What was measured:
Type in all cases: cell-based
C-cell calcium receptor [1] = target: T1, C-cell calcium receptor (Rattus norvegicus, UniProt P48442); assay: [Ca2+]i in rat medullary thyroid carcinoma C-cell line (44-2 cells); conditions: 1 mM extracellular Ca2+, read-out: EC50 for increase in [Ca2+]i
T1 construct: cultured cell lines expressing the C-cell phenotype (e.g., rat medullary thyroid carcinoma cells; rMTC 6-23 cells); host or cells: rMTC 6-23 rat medullary thyroid carcinoma cells
T1 sequence (P48442 20-1079): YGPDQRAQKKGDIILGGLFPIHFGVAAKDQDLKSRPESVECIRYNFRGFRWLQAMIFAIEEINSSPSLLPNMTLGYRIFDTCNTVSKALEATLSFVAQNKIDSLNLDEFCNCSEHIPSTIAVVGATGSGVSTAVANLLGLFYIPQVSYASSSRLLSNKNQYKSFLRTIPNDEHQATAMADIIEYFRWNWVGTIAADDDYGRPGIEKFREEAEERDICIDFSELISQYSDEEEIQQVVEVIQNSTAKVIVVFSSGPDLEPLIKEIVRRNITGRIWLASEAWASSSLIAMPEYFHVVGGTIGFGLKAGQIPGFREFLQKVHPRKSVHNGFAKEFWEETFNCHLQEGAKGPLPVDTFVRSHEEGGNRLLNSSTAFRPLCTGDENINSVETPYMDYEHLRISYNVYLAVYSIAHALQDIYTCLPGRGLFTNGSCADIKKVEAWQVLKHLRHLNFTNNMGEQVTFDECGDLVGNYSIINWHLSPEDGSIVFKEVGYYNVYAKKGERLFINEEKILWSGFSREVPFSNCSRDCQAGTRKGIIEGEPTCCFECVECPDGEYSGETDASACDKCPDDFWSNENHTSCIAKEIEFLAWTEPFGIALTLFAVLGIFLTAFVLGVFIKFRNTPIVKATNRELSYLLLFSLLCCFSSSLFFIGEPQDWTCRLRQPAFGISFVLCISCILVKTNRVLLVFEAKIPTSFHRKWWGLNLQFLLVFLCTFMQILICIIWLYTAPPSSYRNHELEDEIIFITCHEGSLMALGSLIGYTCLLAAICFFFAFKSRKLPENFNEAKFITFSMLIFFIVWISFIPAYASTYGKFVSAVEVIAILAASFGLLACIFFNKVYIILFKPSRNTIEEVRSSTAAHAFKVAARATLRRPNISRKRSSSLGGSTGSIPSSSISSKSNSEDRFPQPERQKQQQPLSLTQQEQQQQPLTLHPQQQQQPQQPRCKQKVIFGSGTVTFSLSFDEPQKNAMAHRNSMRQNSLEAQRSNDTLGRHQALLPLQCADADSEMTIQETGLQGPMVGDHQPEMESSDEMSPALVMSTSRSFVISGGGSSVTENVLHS
Description: C-cells appear to express a calcium receptor that is structurally similar to that present on parathyroid cells (see Example 31). […] Thus, compounds in this structural series appear to activate the C-cell calcium receptor.

HuPCaR 5.2 = target: T2, HuPCaR 5.2 (Homo sapiens, UniProt P41180, E1011Q/Q926R); assay: [Ca2+]i (fura-2) in HEK293 cells transfected with HuPCaR 5.2
T2 construct: appear to be full-length clones corresponding to the 5 Kb mRNA; expressed in transfected cells; host or cells: HEK293 cells, hygromycin-selected pool, Cep4B vector with the HuPCaR 5.2 insert
T2 sequence (P41180 20-1088 isoform P41180-2 Q936R/E1021Q): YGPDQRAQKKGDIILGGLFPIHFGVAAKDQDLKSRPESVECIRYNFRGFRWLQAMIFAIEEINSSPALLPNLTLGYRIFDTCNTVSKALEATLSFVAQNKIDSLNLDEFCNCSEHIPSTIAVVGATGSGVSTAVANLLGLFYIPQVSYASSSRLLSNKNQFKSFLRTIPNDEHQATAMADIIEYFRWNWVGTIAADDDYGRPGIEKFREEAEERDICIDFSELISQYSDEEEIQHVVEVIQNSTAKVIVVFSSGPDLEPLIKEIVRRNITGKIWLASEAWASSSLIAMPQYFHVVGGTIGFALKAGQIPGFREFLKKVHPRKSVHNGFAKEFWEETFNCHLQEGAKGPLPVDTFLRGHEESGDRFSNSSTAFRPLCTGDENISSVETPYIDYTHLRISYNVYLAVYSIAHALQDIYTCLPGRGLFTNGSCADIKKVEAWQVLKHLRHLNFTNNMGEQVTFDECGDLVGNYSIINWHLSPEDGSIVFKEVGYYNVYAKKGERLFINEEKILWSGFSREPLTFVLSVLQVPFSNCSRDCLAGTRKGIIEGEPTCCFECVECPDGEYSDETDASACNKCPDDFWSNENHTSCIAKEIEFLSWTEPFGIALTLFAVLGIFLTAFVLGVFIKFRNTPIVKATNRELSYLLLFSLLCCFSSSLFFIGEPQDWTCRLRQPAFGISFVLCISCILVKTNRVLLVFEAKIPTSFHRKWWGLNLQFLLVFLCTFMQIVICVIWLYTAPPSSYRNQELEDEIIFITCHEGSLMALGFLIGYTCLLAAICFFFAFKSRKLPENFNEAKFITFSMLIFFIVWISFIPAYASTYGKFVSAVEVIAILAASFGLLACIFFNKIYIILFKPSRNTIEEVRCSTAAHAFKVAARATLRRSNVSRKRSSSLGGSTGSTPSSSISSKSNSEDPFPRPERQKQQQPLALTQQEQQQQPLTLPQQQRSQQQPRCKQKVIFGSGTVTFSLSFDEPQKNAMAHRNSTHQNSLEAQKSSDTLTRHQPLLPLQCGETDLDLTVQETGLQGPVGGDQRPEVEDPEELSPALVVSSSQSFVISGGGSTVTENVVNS
Protocol: Cells obtained from the pool of hygromycin selected HEK293 cells transfected with Cep4B containing the HuPCaR 5.2 insert were plated on collagen coated Aklar squares which had been placed into individual wells of 12-well tissue culture plates. Two to six days later, medium was removed and the cells washed with balanced salt solution and 1 ml of buffer containing 1 μM fura2-AM, 1 mM CaCl2 and 0.1% BSA and 1 mM CaCl2. Measurements of fluorescence in response to calcium receptor agonists were performed at 37° C. in a spectrofluorimeter using excitation and emission wavelengths of 340 and 510 nm, respectively. For signal calibration, Fmax was determined after addition of ionomycin (40 μM) and the apparent Fmin was determined by addition of 0.3 M EGTA, 2.5 M Tris-HCl; pH 10.

C-cell calcium receptor [2] = target: T1, C-cell calcium receptor

Row | Compound | EC50 (C-cell calcium receptor [1]) [nM] | intracellular calcium (HuPCaR 5.2) | effect on basal [Ca2+]i (C-cell calcium receptor [2]) | EC50 C-CELL (C-cell calcium receptor [2]; Table 6, rMTC 6-23 cells)
1 | COc1cccc([C@@H](C)NCCCc2ccccc2)c1 (single isomer, unassigned) [NPS R-467] | 1900 | Robust increases in intracellular calcium | – | –
2 | COc1cccc([C@@H](C)NCCCc2ccccc2Cl)c1 [NPS R-568, (R)-(+)-N-[3-(2-chlorophenyl)propyl]-α-methyl-3-methoxybenzylamine] | 2200 | – | – | –
3 | NC[C@@H]1O[C@H](O[C@H]2[C@@H](O)[C@H](O[C@@H]3[C@@H](O)[C@H](N)C[C@H](N)[C@H]3O[C@H]3O[C@H](CN)[C@@H](O)[C@H](O)[C@H]3N)O[C@@H]2CO)[C@H](N)[C@@H](O)[C@@H]1O [Neomycin B, neomycin B] | – | – | without effect | inactive

From patent US20130190407A1, “CALCIUM RECEPTOR-ACTIVE MOLECULES” (NPS Pharmaceuticals, Inc., priority 1991, published 2013)
